According to patent publication US20240190944A1, “MODIFIED CELLS FOR THE PRODUCTION OF A RECOMBINANT PRODUCT OF INTEREST” (Genentech, Inc., priority 2021, published 2024):

Assays:
Assay type in all cases: cell-based, Chinese Hamster
empty host CHO-K1 cells = assay: Growth of empty host CHO-K1 cells in seed train media with PDGFRa inhibitor and/or insulin
Text: (§1) FIGS. 3A-3D. PDGFRa signaling is important for cell growth, e.g., CHO cell growth, and growth factor signaling is intact after PDGFRa inhibition. FIG. 3A is a schematic of PDGFRa and insulin receptor (IR) signaling upstream of protein synthesis, cell cycle progression and cell proliferation. Bolder arrows indicate stronger activation by respective receptors. FIG. 3B depicts empty CHO-K1 host cells VCC and % viability after 4 days in the presence or absence of PDGFRa inhibitor and/or insulin in the seed train media. FIG. 3C depicts western blot analysis of empty host CHO-K1 cells (of FIG. 3B) after 4 days in the presence or absence of PDGFRa inhibitor and/or insulin in the seed train media. FIG. 3D depicts Day 12 relative IVCC, % viability, relative titer and relative Qp of mAb2-expressing CHO-K 1 cells in the presence of PDGFRa inhibitor and/or insulin during production.
FIGS. 4A-4D. FIG. 4A depicts empty host CHO-K1 cells viable cell count (VCC) and % viability after 4 days in increasing PDGFRa inhibitor concentrations in the seed train media. FIG. 4B depicts western blot analysis of empty host CHO-K1 cells after 4 days in increasing PDGFRa inhibitor concentrations in the seed train media. FIG. 4C depicts western blot analysis mAb2-expressing CHO-K 1 cells in production in the presence or absence of PERK inhibitor at 10 μM concentration. […]

[1] = system: mAb2-expressing CHO-K1 cells; assay: Fed-batch production of mAb2-expressing CHO cell line with PDGFRa inhibitor and/or insulin
Text: as §1
Fed-batch production cultures were performed with proprietary chemically defined medium using different vessels (tube-spin and AMBR15) along with bolus feeds on Days 3, 7 and 10 as previously mentioned (Hsu, Aulakh, Traul, & Yuk, 2012). […] Titers were determined using Protein-A affinity chromatography with UV detection. Percent viability and viable cell count were determined using a Vi-Cell XR instrument (Beckman Coulter Item #383721). […]

PDGFRa = assay: Chemical UPR induction in CHO cultures, PDGFRa western blot and qPCR; details: mAb1-expressing CHO DG44 and CHO-K1 seed train cultures; optimal pH
Text: FIGS. 1A-1G. […] FIG. 1C depicts western blot analysis of two mAb1-expressing host cell lines, CHO DG44 and CHO-K1, treated with chemical UPR inducers: tunicamycin and DTT. FIG. 1D depicts qPCR analysis of PDGFRa mRNA levels in both host cell lines of FIG. 1C treated with tunicamycin and DTT. FIG. 1E depicts western blot analysis of mAb1-expressing CHO-K1 cells treated with tunicamycin to activate the UPR in the presence of UPR pathway-specific inhibitors. […] FIG. 1F depicts qPCR analysis of PDGFRa mRNA levels in CHO-K1 cells treated with tunicamycin in the presence of UPR pathway-specific inhibitors. FIG. 1G depicts western blot analysis of WT and PERK KO empty host CHO-K1 (Clone 9) cell lines treated with tunicamycin and PERK inhibitor.
FIGS. 2A-2E. FIG. 2A depicts western blot analysis of mAb1-expressing CHO-K1 cells treated with thapsigargin to activate the UPR in the presence of different UPR pathway-specific inhibitors. […]
An interesting phenomenon was previously described where activation of UPR in seed train culture, triggered by lower pH conditions in a particular CHO cell line, negatively affected culture growth in production media at target pH (Tung, et al., 2018). When exposed to low pH conditions, high intracellular BiP levels were detected in this cell line that correlated to low growth profiles during production and poor bioprocess outcomes (Tung, et al., 2018). […]

In the case of insulin, the “cellular growth of cultures treated with the PDGFRa inhibitor after addition of insulin” value (empty host CHO-K1 cells) is reported as “partially rescued cellular growth” and the “cell growth inhibition in production culture after addition of insulin” value ([1]; insulin on Day 3, PDGFRa inhibited) is reported as “partially rescued the observed cell growth inhibition”.

For Tunicamycin, the “fully functional PDGFRa levels (protein and mRNA)” value (PDGFRa) was “reduced at both the protein and mRNA levels”.

`COc1cc2ncc(-c3ccccc3)nc2cc1OC` [PDGFRa inhibitor, AG-1296] was tested, and the “reduction of cell growth” value (empty host CHO-K1 cells; 20 μM, 4 days) was “approximately 50%” and the “cell growth and cell viability in fed-batch production” value ([1]; PDGFRa inhibition on Day 3) was “significantly decreased cell growth, without affecting cell viability”.
